*1 amine or outer side, *2 acyl side, *3 side chain or, on linkers, in order; H or OH if unused. Where a SMILES comes first, the peptide text is derived from it. [ ]: non-standard residue; d: D form. NMeTrp(1-OMe) = CN[C@@H](Cc1cn(OC)c2ccccc12)C(=O)O; Butanoyl(2R-oxy,4-CN) = N#CCC[C@@H](O)C(=O)O; X1 = CCCC[C@@H](C)C[C@H](N[*:1])C(=O)[*:2]; NMeL = CN[C@@H](CC(C)C)C(=O)O; NMeA = CN[C@@H](C)C(=O)O
What was measured:
Format in all cases: functional, cell-based
HMEC [1] = assay: The compound was tested for the ability to inhibit inducible cell adhesion molecule expression (ICAM-1) in primary human micro vascular cell line (HMEC-1)
HMEC [2] = assay: The compound was tested for the ability to inhibit inducible cell adhesion molecule expression (VCAM-1) in primary human micro vascular cell line (HMEC-1)
HUVEC [3] = assay: The compound was tested for the ability to inhibit inducible cell adhesion molecule expression (E-selectin) in primary human endothelial cell line (HUVEC)
HUVEC [4] = assay: The compound was tested for the ability to inhibit inducible cell adhesion molecule expression (ICAM-1) in primary human endothelial cell line (HUVEC)
HUVEC [5] = assay: The compound was tested for the ability to inhibit inducible cell adhesion molecule expression (VCAM-1) in primary human endothelial cell line (HUVEC)
HMEC [6] = assay: The compound (derived from natural HUN-7293) was tested for the ability to inhibit inducible cell adhesion molecule expression (ICAM-1) in primary human micro vascular cell line (HMEC-1)
HMEC [7] = assay: The compound (derived from natural HUN-7293) was tested for the ability to inhibit inducible cell adhesion molecule expression (VCAM-1) in primary human micro vascular cell line (HMEC-1)
HMEC [8] = assay: The compound (synthetic) was tested for the ability to inhibit inducible cell adhesion molecule expression (VCAM-1) in primary human micro vascular cell line (HMEC-1)
HUVEC [9] = assay: The compound (derived from natural HUN-7293) was tested for the ability to inhibit inducible cell adhesion molecule expression (E-selectin) in primary human endothelial cell line (HUVEC)
HUVEC [10] = assay: The compound (derived from natural HUN-7293) was tested for the ability to inhibit inducible cell adhesion molecule expression (ICAM-1) in primary human endothelial cell line (HUVEC)
HUVEC [11] = assay: The compound (derived from natural HUN-7293) was tested for the ability to inhibit inducible cell adhesion molecule expression (VCAM-1) in primary human endothelial cell line (HUVEC)
HUVEC [12] = assay: The compound (synthetic) was tested for the ability to inhibit inducible cell adhesion molecule expression (E-selectin) in primary human endothelial cell line (HUVEC)
HUVEC [13] = assay: The compound (synthetic) was tested for the ability to inhibit inducible cell adhesion molecule expression (ICAM-1) in primary human endothelial cell line (HUVEC)
HUVEC [14] = assay: The compound (synthetic) was tested for the ability to inhibit inducible cell adhesion molecule expression (VCAM-1) in primary human endothelial cell line (HUVEC)

Row | SMILES | IC50 (HMEC [1]) | IC50 (HMEC [2]) | IC50 (HUVEC [3]) | IC50 (HUVEC [4]) | IC50 (HUVEC [5]) | IC50 (HMEC [6]) | IC50 (HMEC [7]) | IC50 (HMEC [8]) | IC50 (HUVEC [9]) | IC50 (HUVEC [10]) | IC50 (HUVEC [11]) | IC50 (HUVEC [12]) | IC50 (HUVEC [13]) | IC50 (HUVEC [14])
1 | CCCC[C@@H](C)C[C@@H]1NC(=O)[C@@H](CCC#N)NC(=O)[C@H](C)N(C)C(=O)[C@H](C[C@H](C)CCCC)NC(=O)[C@H](Cc2cn(OC)c3ccccc23)N(C)C(=O)[C@H](CC(C)C)NC(=O)[C@@H](CC(C)C)N(C)C1=O | > 3000 nM | 550 nM | > 10000 nM | > 3000 nM | 560 nM |  |  |  |  |  |  |  |  | 
2 | CCCC[C@@H](C)C[C@@H]1NC(=O)[C@H](Cc2cn(OC)c3ccccc23)N(C)C(=O)[C@H](CC(C)C)NC(=O)[C@H](CC(C)C)N(C)C(=O)[C@H](C[C@H](C)CCCC)NC(=O)[C@@H](CCC#N)NC(=O)[C@H](C)N(C)C1=O |  |  |  |  |  | 540 nM | 22 nM | 58 nM | 540 nM | 540 nM | 33 nM | 1000 nM | 950 nM | 64 nM
3 | CCCC[C@@H](C)C[C@@H]1NC(=O)[C@H](Cc2cn(OC)c3ccccc23)N(C)C(=O)[C@H](CC(C)C)NC(=O)[C@H](CC(C)C)N(C)C(=O)[C@H](C[C@H](C)CCCC)NC(=O)[C@@H](CCC#N)OC(=O)[C@H](C)N(C)C1=O (cyclo(L[NMeTrp(1-OMe)][X1][NMeA][Butanoyl(2R-oxy,4-CN)][X1][NMeL])) | 24 nM | 1 nM | 44 nM | 26 nM | 3 nM |  |  |  |  |  |  |  |  | 

From ChEMBL document CHEMBL1133260, “Synthesis and evaluation of aza HUN-7293” (Bioorg Med Chem Lett, 2000)
